Reference: paper PMC4388847, “Machine Learning Assisted Design of Highly Active Peptides for Drug Discovery” (PLoS Computational Biology, 2015)
Read-outs that look alike come from different tables or passages of the source. Peptide text beside a SMILES is read from it.

Key:
[1] = stated in words as the cause of the weak activity
Source text: We used the proposed approach with the predictor h CAMP to generate a list of K = 1,000 peptide candidates with the highest predicted activity. From this list, we greedily selected three peptides such that they all differed by at least 4 amino acids from each others. This was done to maximize the chemical diversity among them. We then tested these peptides (Peptides #2, #3, #4) in a growth inhibitory assay. […] In a second series, we ensured that a filter for water solubility was employed.

[2] = tested on: Escherichia coli K12 MG1655; format: cell-based
Description: (§1) To further validate the approach, a number of antimicrobial peptides identified during the in silico validation were synthesized. Their antimicrobial activity against Escherichia coli and Staphylococcus aureus were measured in a growth inhibitory assay. Details on the synthesis and assay are given in the supplementary material (see S1 Text). The peptides were obtained using h CAMP, the same predictor used during the previous validation. […]
(§2) Escherichia coli K12 MG1655 and Staphylococcus aureus 68 (HER1049) were obtained from the F´elix d’H´erelle Reference Center for Bacterial Viruses of Universit´e Laval (http://www.phage.ulaval.ca). Both strains were grown in Trypticase soy broth with agitation at 37◦C. The minimal inhibitory concentration assay was performed as described in [2] and broth microdilution protocol performed in 96-well plates.
(§3) The bacterial strains were grown overnight at 37◦C with aeration and diluted to a ﬁnal concentration of 5× 10^5 cfu/ml in the assay. The peptides were diluted in sterile water and were tested at the following concentrations: 0, 1, 2, 4, 8, 16 and 32µg/ml. The optical density (600nm) was followed every 30 minutes for 24 hours with a Synergy 2 plate reader (BioTek Instruments, Inc.). […]
(§4) 2.Wiegand I, Hilpert K, Hancock RE (2008) Agar and broth dilution methods to determine the minimal inhibitory concentration (mic) of antimicrobial substances. Nature protocols 3: 163–175.

[3] = tested on: Staphylococcus aureus 68 (HER1049); format: cell-based
Description: as §1, §2, §3, §4

[4] = tested on: 24 bacteria such as Escherichia coli, Bacteroïdes fragilis, and Staphylococcus aureus; details: average potency over 24 bacteria; CAMPs training set value; cited from earlier work
Source text: We observe a smooth power law with only a few peptides having outstanding biological activity, as expected.

[5] = tested on: bradykinin potentiation; details: BPPs training set value; cited from earlier work
Source text: On the BPPs dataset, the proposed approach predicted that the pentapeptide IEWAK should have an activity of 2.195, slightly less than the best peptide of the training set (VEWAK, 2.73, predicted as 2.192). However, the predicted activity of IEWAK is much better than the average peptide activity of the dataset, which is 0.71. One may ask why IEWAK has a lower predicted biological activity than VEWAK, which was part of the training data. It is common for machine learning algorithms to sacrifice accuracy on the training data to prevent overfitting. Despite this small discrepancy, the model is ver ...

[6] = E. coli K12 MG1655, broth microdilution in 96-well plates, 5×10^5 cfu/ml, peptides in sterile water tested at 0, 1, 2, 4, 8, 16 and 32 µg/ml, OD 600 nm every 30 minutes for 24 hours, 37 °C
[7] = S. aureus 68 (HER1049), broth microdilution in 96-well plates, 5×10^5 cfu/ml, peptides in sterile water tested at 0, 1, 2, 4, 8, 16 and 32 µg/ml, OD 600 nm every 30 minutes for 24 hours, 37 °C

With CC(C)C[C@H](NC(=O)[C@H](CCCNC(=N)N)NC(=O)[C@H](CCCCN)NC(=O)[C@H](Cc1c[nH]c2ccccc12)NC(=O)[C@H](Cc1c[nH]c2ccccc12)NC(=O)[C@H](CCCCN)NC(=O)[C@H](Cc1c[nH]c2ccccc12)NC(=O)[C@@H](N)Cc1c[nH]c2ccccc12)C(=O)N[C@@H](CCCNC(=N)N)C(=O)N[C@@H](CCCNC(=N)N)C(=O)N[C@@H](CC(C)C)C(=O)N[C@@H](Cc1ccccc1)C(=O)N[C@@H](CC(C)C)C(=O)N[C@@H](CC(C)C)C(=O)N[C@H](C(N)=O)C(C)C [Peptide 4] (H-WWKWWKRLRRLFLLV-NH2; N-terminus assumed) the water solubility [1] was “poor”, the “MIC (μg/ml) >E. coli” value ([2]; K12, 24 h) was 16 µg/mL and the “MIC (μg/ml) S. aureus” value ([3]; 68 (HER1049, 24 h)) was 16 µg/mL.
For CC[C@H](C)[C@H](NC(=O)CNC(=O)[C@H](CC(C)C)NC(=O)[C@H](Cc1ccccc1)NC(=O)[C@H](CC(C)C)NC(=O)[C@H](CCCCN)NC(=O)[C@H](Cc1c[nH]c2ccccc12)NC(=O)[C@@H](N)CCCCN)C(=O)N[C@@H](CC(C)C)C(=O)N[C@@H](C)C(=O)N[C@H](C(=O)N[C@@H](CC(C)C)C(=O)N[C@@H](CCCCN)C(=O)N[C@H](C(=O)N[C@@H](CC(C)C)C(N)=O)C(C)C)C(C)C [Peptide 7, reference compound] (H-KWKLFLGILAVLKVL-NH2; N-terminus assumed), the “MIC (μg/ml) >E. coli” value [2, 6] was over 32 µg/mL and the “MIC (μg/ml) S. aureus” value [3, 7] was over 32 µg/mL.
With CC[C@H](C)[C@H](NC(=O)CNC(=O)[C@H](CCCCN)NC(=O)[C@H](Cc1ccccc1)NC(=O)[C@H](CC(C)C)NC(=O)[C@H](CCCCN)NC(=O)[C@H](Cc1c[nH]c2ccccc12)NC(=O)[C@@H](N)CCCCN)C(=O)N[C@@H](CCCNC(=N)N)C(=O)N[C@@H](C)C(=O)N[C@H](C(=O)N[C@@H](CC(C)C)C(=O)N[C@@H](CCCCN)C(=O)N[C@H](C(=O)N[C@@H](CC(C)C)C(N)=O)C(C)C)C(C)C [Peptide 5, reference compound] (H-KWKLFKGIRAVLKVL-NH2; N-terminus assumed) the “MIC (μg/ml) >E. coli” value [2, 6] was 4 µg/mL and the “MIC (μg/ml) S. aureus” value [3, 7] was 8 µg/mL.
In the case of CC[C@H](C)[C@H](NC(=O)[C@H](CCCNC(=N)N)NC(=O)[C@H](CCCNC(=N)N)NC(=O)[C@H](CC(C)C)NC(=O)[C@H](CCCCN)NC(=O)[C@H](CCCCN)NC(=O)[C@H](Cc1c[nH]c2ccccc12)NC(=O)[C@H](CCCCN)NC(=O)[C@H](CCCCN)NC(=O)[C@H](Cc1c[nH]c2ccccc12)NC(=O)[C@@H](N)Cc1ccc(O)cc1)C(=O)N[C@@H](Cc1ccccc1)C(=O)N[C@@H](CCSC)C(=O)N[C@@H](CC(C)C)C(=O)N[C@H](C(N)=O)C(C)C [Peptide 1] (H-YWKKWKKLRRIFMLV-NH2; N-terminus assumed), the “MIC (μg/ml) >E. coli” value ([2]; K12, 24 h) is reported as 2 µg/mL and the “MIC (μg/ml) S. aureus” value ([3]; 68 (HER1049, 24 h)) is reported as 8 µg/mL.
For CC[C@H](C)[C@H](NC(=O)[C@H](CC(C)C)NC(=O)[C@H](CCCNC(=N)N)NC(=O)[C@H](Cc1c[nH]c2ccccc12)NC(=O)CN)C(=O)N[C@@H](CCCCN)C(=O)N[C@@H](CCCCN)C(=O)N[C@H](C(=O)N[C@@H](CC(C)C)C(=O)N[C@@H](CCCNC(=N)N)C(=O)N[C@H](C(=O)N[C@@H](Cc1ccccc1)C(=O)N[C@@H](CCCCN)C(=O)NCC(=O)N[C@@H](CC(C)C)C(N)=O)C(C)C)[C@@H](C)CC [Peptide 6, reference compound] (H-GWRLIKKILRVFKGL-NH2; N-terminus assumed), the “antibacterial activity (logarithm of bactericidal potency)” value [4] is given as 0.824, the “MIC (μg/ml) >E. coli” value [2, 6] is given as 4 µg/mL and the “MIC (μg/ml) S. aureus” value [3, 7] is given as 4 µg/mL.
In the case of VEWAK, the “bioactivity (logarithm of the relative activity index compared to the peptide VESSK)” value [5] is listed as 2.73.
In the case of CC[C@H](C)[C@H](NC(=O)[C@H](CCCNC(=N)N)NC(=O)[C@H](CCCCN)NC(=O)[C@H](Cc1c[nH]c2ccccc12)NC(=O)[C@H](CCCNC(=N)N)NC(=O)[C@H](CCCCN)NC(=O)[C@H](Cc1c[nH]c2ccccc12)NC(=O)[C@@H](N)Cc1c[nH]c2ccccc12)C(=O)N[C@@H](CCCNC(=N)N)C(=O)N[C@@H](CCCNC(=N)N)C(=O)N[C@H](C(=O)N[C@@H](Cc1ccccc1)C(=O)N[C@@H](CCSC)C(=O)N[C@@H](CCSC)C(=O)N[C@H](C(N)=O)C(C)C)[C@@H](C)CC [Peptide 3] (H-WWKRWKRIRRIFMMV-NH2; N-terminus assumed), the “MIC (μg/ml) >E. coli” value ([2]; K12, 24 h) is reported as 4 µg/mL and the “MIC (μg/ml) S. aureus” value ([3]; 68 (HER1049, 24 h)) is reported as 8 µg/mL.
In the case of CC[C@H](C)[C@H](NC(=O)[C@H](CCCNC(=N)N)NC(=O)[C@H](CCCNC(=N)N)NC(=O)[C@H](CC(C)C)NC(=O)[C@H](CCCCN)NC(=O)[C@H](CCCCN)NC(=O)[C@H](Cc1c[nH]c2ccccc12)NC(=O)[C@H](CCCNC(=N)N)NC(=O)[C@H](CCCCN)NC(=O)[C@H](Cc1c[nH]c2ccccc12)NC(=O)[C@@H](N)Cc1c[nH]c2ccccc12)C(=O)N[C@@H](Cc1ccccc1)C(=O)N[C@@H](CC(C)C)C(=O)N[C@@H](CCSC)C(=O)N[C@@H](CC(C)C)C(N)=O [Peptide 2] (H-WWKRWKKLRRIFLML-NH2; N-terminus assumed), the “MIC (μg/ml) >E. coli” value ([2]; K12, 24 h) is reported as 4 µg/mL and the “MIC (μg/ml) S. aureus” value ([3]; 68 (HER1049, 24 h)) is reported as 4 µg/mL.
